Data reported in patent publication US11679159B2, “Compositions for transfecting resistant cell types” (Precision Nanosystems ULC, priority 2018, dated 2023).

Test system: NPC
Assay: GFP levels in NPC measured by flow cytometry, KC2 and DLin-MC3-DMA substituted as ionizable lipid
Type: cell-based, human
Details: 48 H, ionizable lipid in the Lipid Mix K, over the control Lipid Mix A (FIG. 11)
Description: Two commonly used ionizable lipids, KC2 and DLin-MC3-DMA, were substituted for the ionizable lipid component for Lipid Mixes A and K. NPC were transfected as specified above, and the results at 48 H for GFP Median Fluorescent Intensity via flow cytometry are shown in FIG. 11. Both KC2 and DLin-MC3-DMA (MC3 in the graph) were effective in the Lipid Mix K to enhance GFP expression over the control Lipid Mix A. PNI-IL-1 is 1,17-bis(2-octylcyclopropyl)heptadecan-9-yl 4-(dimethylamino)butanoate HCl).

CCCCCC=CCC=CCCCCCCCCC(CCCCCCCCC=CCC=CCCCCC)OC(=O)CCCN(C)C (centres unmarked) [DLin-MC3-DMA, heptatriaconta-6,9,28,31-tetraen-19-yl 4-(dimethylamino)butanoate]
GFP Median Fluorescent Intensity via flow cytometry: effective

CCCCC/C=C\C/C=C\CCCCCCCCC1(CCCCCCCC/C=C\C/C=C\CCCCC)OCC(CCN(C)C)O1 (centres unmarked) [KC2, 2,2-dilinoleyl-4-(2-dimethylaminoethyl)-[1,3]-dioxolane]
GFP Median Fluorescent Intensity via flow cytometry: effective
